Data on 2 compounds can be found in the NIST ThermoML archive (doi:10.1016/j.fluid.2014.04.015).

± gives the expanded uncertainty stated by the source.

For the series the following is noted: Liquid, Closed cell (Static) method.

For `CC(F)F` [1,1-difluoroethane], the “vapor or sublimation pressure” value by setting is: (283.15 K) 374.8 ± 7 kPa; (293.15 K) 515.2 ± 7 kPa; (303.15 K) 692 ± 7.1 kPa; (313.15 K) 911.1 ± 7.1 kPa; (323.15 K) 1179.4 ± 7.2 kPa.

Regarding `C=C(F)C(F)(F)F` [2,3,3,3-tetrafluoro-1-propene], the “vapor or sublimation pressure” value runs as follows: (283.15 K) 436.5 ± 7.1 kPa; (293.15 K) 591 ± 7.2 kPa; (303.15 K) 780.5 ± 7.4 kPa; (313.15 K) 1015.6 ± 7.6 kPa; (323.15 K) 1300.7 ± 7.9 kPa.
